This is an account of results in patent publication US5294617A, “Angiotensin II receptor blocking 2,3,6 substituted quinazolinones” (American Cyanamid Company, priority 1993, dated 1994).

The target in this test is T1, Angiotensin II Receptor (Bos taurus, UniProt P25104).
T1 construct: The brownish tissue forming the adrenal cortex is scraped off and finely minced with scissors before homogenization; tissue local slaughter house (Maxwell--Cohen); host or cells: beef adrenal cortex, microsomal membranes (100,000×g pellet)
T1 sequence (P25104 1-359): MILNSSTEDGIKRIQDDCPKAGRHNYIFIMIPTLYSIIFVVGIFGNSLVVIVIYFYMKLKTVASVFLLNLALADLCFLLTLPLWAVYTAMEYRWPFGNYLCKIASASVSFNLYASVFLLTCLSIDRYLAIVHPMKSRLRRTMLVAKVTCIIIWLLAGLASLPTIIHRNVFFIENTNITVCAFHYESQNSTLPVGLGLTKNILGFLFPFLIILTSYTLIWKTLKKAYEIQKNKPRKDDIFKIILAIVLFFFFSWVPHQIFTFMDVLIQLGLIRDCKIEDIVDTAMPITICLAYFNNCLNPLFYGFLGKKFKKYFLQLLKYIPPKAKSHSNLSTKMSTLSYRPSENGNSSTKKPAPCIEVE
Put plainly: Receptor Binding Assay: binding of [125I](Sar1,Ile8)AngII to beef adrenal cortex membranes. The source says:
[^125 I](Sar^1,Ile^8)AngII, S.A. 2200 Ci/mmole, is purchased from Dupont (NEN®, Boston, Mass.). All unlabeled AngII analogs, Dimethylsulfoxide (DMSO), nucleotides, bovine serum albumin (BSA) are purchased from Sigma Chemical Co., St. Louis, Mo. U.S.A.
Approximately sixteen (16) to twenty (20) beef adrenal glands are processed as follows: fresh adrenal glands received on crushed ice are cleaned of fatty tissues and the tough membranes encapsulating the glands are removed and discarded. The brownish tissue forming the adrenal cortex is scraped off and finely minced with scissors before homogenization. Care is taken to avoid contamination with medullary tissue during dissection. The scraped cortices are suspended in twenty volumes of an ice-cold buffer medium consisting of 10 mM Tris.HCl (pH 7.4 at 22° C.) and containing 1.0 mM EDTA and 0.2M sucrose. Unless otherwise indicated, all subsequent operations are done at 4° C. […] The homogenate is centrifuged first at low speed (3,000×g) for 10 min. […] This P2 pellet is discarded and the liquid phase is carefully decanted off in clean centrifuge tubes and recentrifuged at high speed (100,000×g) for 60 min. The translucent final pellet is harvested and combined in a small volume (20-50.0 ml) of 50.0 mM Tris.HCl buffer, pH 7.2. […] The pelleted membrane is reconstituted in 50.0 mM Tris.HCl buffer containing 0.1 mM of phenylmethylsulfonyl fluoride (PMSF) to give approximately a protein concentration of 2.5 mg per ml of tissue suspension. The membrane preparation is finally aliquoted in 1.0 ml volumes and stored at -70° C. until use in the binding assays.
In competition studies, experimental compounds are diluted in dimethylsulfoxide (DMSO) and added in 20 ul to wells before the introduction of tissue membranes. […] Assays are performed in triplicate. The wells are left undisturbed for 60 min. at room temperature. […] The filters are removed from the filter grid and counted in a Parkard® Cobra Gamma Counter for 1 min. […] The binding data are analyzed by the non-linear interactive "LUNDON-1" program (LUNDON SOFTWARE Inc., Cleveland, Ohio U.S.A.).

Usually IC50 stands for the concentration at which inhibition is half-maximal. Read a low IC50 as inhibition by little substance. As for `CCCCc1nc2ccc([C@@H]3C[C@H](CO)ON3C)cc2c(=O)n1Cc1ccc(-c2ccccc2-c2nn[nH]n2)cc1` (relative stereo) [Example 15, CIS-2-butyl-6-5-(hydroxymethyl)-2-methyl-3-isoxazolidinyl]-3-[[2'-(1H-tetrazol-5[1,1'-biphenyl]-4-yl]methyl]-4(3H)-quinazolinone], the concentration for half-maximal inhibition (IC50) worked out at 0.043 µM. This lies in the double-digit nanomolar range.

In the case of `CCCCc1nc2ccc([C@H]3C[C@H](CO)ON3C)cc2c(=O)n1Cc1ccc(-c2ccccc2-c2nnn[nH]2)cc1` (relative stereo) [Example 16, TRANS-2-butyl-6-[5-(hydroxymethyl)-2-methyl-3-isoxazolidinyl]-3-[[2'-(1H-tetrazol-5-yl)[1,1'-biphenyl]-4-yl]methyl]-4(3H)-quinazolinone], the 50% inhibitory concentration (IC50) came to 0.061 µM. This IC50 and that of the molecule before are within 1.5-fold of each other.
